According to ChEMBL document CHEMBL1938256, “Synthesis and DNA cleavage studies of novel quinoline oxime esters” (Bioorg Med Chem Lett, 2012):
The source made the active and inactive calls. The calls are words filed in the database; no cut-off is given here.

Legend:
Assay type in all cases: nucleic-acid assay
Nucleic Acid [1] = test: Induction of UV light-induced Escherichia coli pUC19 DNA cleavage assessed as conversion of supercoiled DNA into linear form at 80 uM by neutral agarose gel electrophoresis
Nucleic Acid [2] = test: Induction of UV light-induced Escherichia coli pUC19 DNA cleavage assessed as conversion of supercoiled DNA into nicked form at 80 uM by neutral agarose gel electrophoresis
Nucleic Acid [3] = test: Induction of Escherichia coli pUC19 DNA cleavage assessed as conversion of supercoiled DNA into nicked circular form at 40 to 80 uM by neutral agarose gel electrophoresis in presence of UV light

Structure (SMILES)	Activity (Nucleic Acid [1])	Activity (Nucleic Acid [2])	Activity (Nucleic Acid [3])
O=C(O/N=C/c1cc2ccccc2nc1Cl)c1ccc([N+](=O)[O-])cc1	Active	Active	Active
O=C(O/N=C/c1cc2ccccc2nc1Cl)c1ccc(Cl)cc1	Active	Active	Active
O=C(O/N=C/c1cc2ccccc2nc1Cl)c1ccccc1	inactive	inactive	Active
O=C(O/N=C/c1cc2ccccc2nc1Cl)c1ccc(Br)cc1	Active	Active	Active
O=C(O/N=C/c1cc2ccccc2nc1Cl)c1ccccc1F	Active	Active	Active
O=C(O/N=C/c1cc2ccccc2nc1Cl)c1cc([N+](=O)[O-])cc([N+](=O)[O-])c1	Active	Active	Active

More lines, now with the values ahead:

Activity (Nucleic Acid [1])	Activity (Nucleic Acid [2])	Activity (Nucleic Acid [3])	Structure (SMILES)
inactive	inactive	Active	COc1ccc(C(=O)O/N=C/c2cc3ccccc3nc2Cl)cc1
inactive	inactive	Active	O=C(O/N=C/c1cc2ccccc2nc1Cl)c1ccc(O)cc1
Active	Active	Active	O=C(O/N=C/c1cc2ccccc2nc1Cl)c1ccc(F)cc1
